Blank lines part the entries; values can stand above or below the molecule they belong to.
Legend:
Entamoeba histolytica = test: Antiamoebic activity against trophozoite stage of Entamoeba histolytica HM-1:IMSS after 72 hrs by microdilution method; type: functional, organism-based
[1] = Cytotoxicity against human HeLa cells assessed as cell viability at 208 nM after 72 hrs by MTT assay relative to control; type: cell-based; conditions: read-out: Activity
[2] = Cytotoxicity against human HeLa cells assessed as cell viability at 208 nM after 48 hrs by MTT assay relative to control; type: cell-based; conditions: read-out: Activity
[3] = Cytotoxicity against human HeLa cells assessed as cell viability at 208 nM after 24 hrs by MTT assay relative to control; type: cell-based; conditions: read-out: Activity
[4] = Cytotoxicity against human HeLa cells assessed as cell viability at 387 nM after 72 hrs by MTT assay relative to control; type: cell-based; conditions: read-out: Activity
[5] = Cytotoxicity against human HeLa cells assessed as cell viability at 387 nM after 48 hrs by MTT assay relative to control; type: cell-based; conditions: read-out: Activity
[6] = Cytotoxicity against human HeLa cells assessed as cell viability at 387 nM after 24 hrs by MTT assay relative to control; type: cell-based; conditions: read-out: Activity
[7] = Cytotoxicity against human HeLa cells assessed as cell viability at 360 nM after 72 hrs by MTT assay relative to control; type: cell-based; conditions: read-out: Activity
[8] = Cytotoxicity against human HeLa cells assessed as cell viability at 360 nM after 48 hrs by MTT assay relative to control; type: cell-based; conditions: read-out: Activity
[9] = Cytotoxicity against human HeLa cells assessed as cell viability at 360 nM after 24 hrs by MTT assay relative to control; type: cell-based; conditions: read-out: Activity
[10] = Cytotoxicity against human HeLa cells assessed as cell viability at 490 nM after 24 hrs by MTT assay relative to control; type: cell-based; conditions: read-out: Activity
[11] = Cytotoxicity against human HeLa cells assessed as cell viability at 490 nM after 72 hrs by MTT assay relative to control; type: cell-based; conditions: read-out: Activity
[12] = Cytotoxicity against human HeLa cells assessed as cell viability at 490 nM after 48 hrs by MTT assay relative to control; type: cell-based; conditions: read-out: Activity
[13] = Cytotoxicity against human HeLa cells assessed as cell viability at 435 nM after 48 hrs by MTT assay relative to control; type: cell-based; conditions: read-out: Activity
[14] = Cytotoxicity against human HeLa cells assessed as cell viability at 435 nM after 72 hrs by MTT assay relative to control; type: cell-based; conditions: read-out: Activity
[15] = Cytotoxicity against human HeLa cells assessed as cell viability at 435 nM after 24 hrs by MTT assay relative to control; type: cell-based; conditions: read-out: Activity
[16] = Cytotoxicity against human HeLa cells assessed as cell viability at 370 nM after 48 hrs by MTT assay relative to control; type: cell-based; conditions: read-out: Activity
[17] = Cytotoxicity against human HeLa cells assessed as cell viability at 370 nM after 72 hrs by MTT assay relative to control; type: cell-based; conditions: read-out: Activity
[18] = Cytotoxicity against human HeLa cells assessed as cell viability at 370 nM after 24 hrs by MTT assay relative to control; type: cell-based; conditions: read-out: Activity

IC50 (Entamoeba histolytica): 11500 nM
Structure (SMILES): Cc1ncc([N+](=O)[O-])n1CCOc1ccc(C=O)cc1

IC50 (Entamoeba histolytica): 2020 nM
Structure (SMILES): Cc1ncc([N+](=O)[O-])n1CCOc1ccc(/C=N/NC(=O)c2ccccc2)cc1

IC50 (Entamoeba histolytica): 200 nM
Structure (SMILES): Cc1ncc([N+](=O)[O-])n1CCOc1ccc(/C=N/NC(=O)c2ccc(Cl)cc2)cc1
viability at 72 h, 0.208 µM [1]: 65.9%
viability at 48 h, 0.208 µM [2]: 93.7%
viability at 24 h, 0.208 µM [3]: 85.9%

IC50 (Entamoeba histolytica): 380 nM
Structure (SMILES): Cc1ncc([N+](=O)[O-])n1CCOc1ccc(/C=N/NC(=O)c2ccc(O)cc2)cc1
viability at 72 h, 0.387 µM [4]: 54.4%
viability at 48 h, 0.387 µM [5]: 87.1%
viability at 24 h, 0.387 µM [6]: 81.9%

IC50 (Entamoeba histolytica): 360 nM
Structure (SMILES): Cc1ncc([N+](=O)[O-])n1CCOc1ccc(/C=N/NC(=O)c2ccc([N+](=O)[O-])cc2)cc1
viability at 72 h, 0.36 µM [7]: 68.3%
viability at 48 h, 0.36 µM [8]: 88.9%
viability at 24 h, 0.36 µM [9]: 78.5%

IC50 (Entamoeba histolytica): 7120 nM
Structure (SMILES): COc1ccc(C(=O)N/N=C/c2ccc(OCCn3c([N+](=O)[O-])cnc3C)cc2)cc1

IC50 (Entamoeba histolytica): 490 nM
Structure (SMILES): Cc1ccc(C(=O)N/N=C/c2ccc(OCCn3c([N+](=O)[O-])cnc3C)cc2)cc1
viability at 24 h, 0.49 µM [10]: 66.2%
viability at 72 h, 0.49 µM [11]: 50.8%
viability at 48 h, 0.49 µM [12]: 83.8%

IC50 (Entamoeba histolytica): 430 nM
Structure (SMILES): Cc1ncc([N+](=O)[O-])n1CCOc1ccc(/C=N/NC(=O)c2ccc(N)cc2)cc1
viability at 48 h, 0.435 µM [13]: 80.1%
viability at 72 h, 0.435 µM [14]: 60.3%
viability at 24 h, 0.435 µM [15]: 79.8%

IC50 (Entamoeba histolytica): 1980 nM
Structure (SMILES): Cc1ncc([N+](=O)[O-])n1CCOc1ccc(/C=N/NC(=O)c2ccc(C(C)(C)C)cc2)cc1

IC50 (Entamoeba histolytica): 5960 nM
Structure (SMILES): Cc1cc(C)cc(C(=O)N/N=C/c2ccc(OCCn3c([N+](=O)[O-])cnc3C)cc2)c1

IC50 (Entamoeba histolytica): 4390 nM
Structure (SMILES): COc1cc(OC)cc(C(=O)N/N=C/c2ccc(OCCn3c([N+](=O)[O-])cnc3C)cc2)c1

IC50 (Entamoeba histolytica): 370 nM
Structure (SMILES): Cc1ncc([N+](=O)[O-])n1CCOc1ccc(/C=N/NC(=O)c2cc(O)cc(O)c2)cc1
viability at 48 h, 0.37 µM [16]: 92.1%
viability at 72 h, 0.37 µM [17]: 59.8%
viability at 24 h, 0.37 µM [18]: 93.4%

IC50 (Entamoeba histolytica): 2600 nM
Structure (SMILES): COc1cc(C(=O)N/N=C/c2ccc(OCCn3c([N+](=O)[O-])cnc3C)cc2)cc(OC)c1OC

Source: ChEMBL document CHEMBL3603829, “Metronidazole hydrazone conjugates: Design, synthesis, antiamoebic and molecular docking studies” (Bioorg Med Chem Lett, 2015)
